In patent US9951063B2, “8-(piperazin-1-yl)-1,2,3,4-tetrahydro-isoquinoline derivatives” (IDORSIA PHARMACEUTICALS LTD, priority 2014, dated 2018):

Molecular target: human CXCR3A (Homo sapiens (Human), UniProt P49682)
Assay: FLIPR assay (inhibition of CXCL10-induced calcium signal)
Type: cell-based
Details: engineered CHO-K1 cells expressing human CXCR3A coupled to Galpha(16); Fluo-4-AM; CXCL10 agonist 20 nM; mean values where determined several times
In short: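 CHO-K1 cells expressing human CXCR3A coupled to Gα16 were loaded with Fluo-4-AM for 1 h in HBSS/20 mM Hepes pH 7.4 with probenecid. Compound was added, then CXCL10 (20 nM as dispensed). Baseline-subtracted peak fluorescence gave inhibition curves and IC50, averaged over repeats.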

human CXCR3A, sequence (P49682 whole entry): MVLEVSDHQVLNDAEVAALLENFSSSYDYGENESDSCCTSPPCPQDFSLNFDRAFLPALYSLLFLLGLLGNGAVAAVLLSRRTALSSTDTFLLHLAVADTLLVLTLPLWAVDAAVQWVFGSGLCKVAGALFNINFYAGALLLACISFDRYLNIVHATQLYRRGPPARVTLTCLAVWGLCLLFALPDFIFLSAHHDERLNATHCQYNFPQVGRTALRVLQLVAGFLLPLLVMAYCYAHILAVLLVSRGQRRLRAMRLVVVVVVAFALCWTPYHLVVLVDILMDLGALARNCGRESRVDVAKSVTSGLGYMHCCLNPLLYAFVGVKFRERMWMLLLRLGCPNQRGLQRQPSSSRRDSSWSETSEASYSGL

Row | SMILES | IC50 [nM]
1 | Cn1c(=O)n(CC(=O)N2CCN(c3cccc4c3CN(C(=O)Cc3ccccc3)CC4)CC2)c2ccccc21 [Example 141, 1-Methyl-3-{2-oxo-2-[4-(2-phenylacetyl-1,2,3,4-tetrahydro-isoquinolin-8-yl)-piperazin-1-yl]-ethyl}-1,3-dihydro-benzoimidazol-2-one] | 190
2 | O=C(Cn1cnc2cccnc21)N1CCN(c2cccc3c2CN(S(=O)(=O)Cc2ccccc2)CC3)CC1 [Example 142, 2-Imidazo[4,5-b]pyridin-3-yl-1-[4-(2-phenylmethanesulfonyl-1,2,3,4-tetrahydro-isoquinolin-8-yl)-piperazin-1-yl]-ethanone] | 65.4
3 | C[C@@H]1CN(c2cccc3c2CN(Cc2ccc(Cl)cc2)CC3)CCN1C(=O)Cn1cnc2cccnc21 [Example 143, 1-{(R)-4-[2-(4-Chloro-benzyl)-1,2,3,4-tetrahydro-isoquinolin-8-yl]-2-methyl-piperazin-1-yl}-2-imidazo[4,5-b]pyridin-3-yl-ethanone] | 465
4 | C[C@@H]1CN(c2ccc(Br)c3c2CN(C(=O)OCc2ccccc2)CC3)CCN1C(=O)Cn1cnc2cccnc21 [Example 144, 5-Bromo-8-[(R)-4-(2-imidazo[4,5-b]pyridin-3-yl-acetyl)-3-methyl-piperazin-1-yl]-3,4-dihydro-1H-isoquinoline-2-carboxylic acid benzyl ester] | 85.7

Further lines, results first:

Row | IC50 [nM] | SMILES
5 | 25.6 | C[C@@H]1CN(c2ccc(C(F)(F)F)c3c2CN(C(=O)OCc2ccccc2)CC3)CCN1C(=O)Cn1cnc2cccnc21 [Example 145, 8-[(R)-4-(2-Imidazo[4,5-b]pyridin-3-yl-acetyl)-3-methyl-piperazin-1-yl]-5-trifluoromethyl-3,4-dihydro-1H-isoquinoline-2-carboxylic acid benzyl ester]
6 | 15.6 | C[C@@H]1CN(c2ccc(C#N)c3c2CN(C(=O)OCc2ccccc2)CC3)CCN1C(=O)Cn1cnc2cccnc21 [Example 146, 5-Cyano-8-[(R)-4-(2-imidazo[4,5-b]pyridin-3-yl-acetyl)-3-methyl-piperazin-1-yl]-3,4-dihydro-1H-isoquinoline-2-carboxylic acid benzyl ester]
7 | 8.58 | Cc1nc(C)n(CC(=O)N2CCN(c3cc(F)c(F)c4c3CN(c3cnc(C(F)(F)F)nc3)CC4)C[C@H]2C)n1 [Example 147, 1-{(R)-4-[5,6-Difluoro-2-(2-trifluoromethyl-pyrimidin-5-yl)-1,2,3,4-tetrahydro-isoquinolin-8-yl]-2-methyl-piperazin-1-yl}-2-(3,5-dimethyl-[1,2,4]triazol-1-yl)-ethanone]
